In assay [1] the test system is Mononuclear cells of peripheral human blood (PBMC). Put plainly: Test on the proliferation of mononuclear cells. Also noted: key: expressing with +, ++ and +++ the substances acting as stimulants (from the least to the most effective); expressing with +, ++ and +++ the substances acting as stimulants (from the least to the most effective); expressing with +, ++ and +++ the substances acting as stimulants (from the least to the most effective); with -, -- and --- the substances inhibiting normal cell growth; with -, -- and --- the substances inhibiting normal cell growth; with -, -- and --- the substances inhibiting normal cell growth; The inactive compounds were expressed with =; separating with / the effects of the higher doses from those of the lower doses. Type of assay: cell-based. Particulars: Table 2, tritium thymidine; for Effect on cell proliferation, ACTIVATOR USED Interl. 2: PBMC activated with Interleukin 2, 6 days. As for the experimental part: Mononuclear cells of peripheral human blood (PBMC), provided by healthy volunteers, were purified according to techniques normally used in haematology laboratories, and were finally suspended, at a concentration of 1.000.000/ml in the bed RPMI 1640 (company Flow Laboratories), enriched with 10% of heat inactivated human serum, 2 mM of glutamine and 40 mcg/ml of Gentalyn (from Shering Co.).
The cells were cultivated (100.000/pit) in triplicate on plates of 96 flat-bottomed pits, for a varying number of days according to the activating substances used (6 days for Interleukin 2 and PPD, 3 days for PHA and ConA), in 200 microliters of the suspension bed, in an incubator at 37° C. with 5% CO2. During the last 17 hours of culture the cells were marked with 0,5 microCuries of tritium thymidine (TdR). At the end of the incubation period, the radioactivity present in the cells was gathered on fiberglass filters. Embedded TdR was measured in a beta-radiation counter.
The results are expressed as arithmetic averages of the counts.
On the cells cultivated in this manner the effect of the substances derived from snake poison was tested.
Using the same methods employed in the test described above, a series of compounds having a peptide structure according to the invention, along with other control compounds, were tested for their imunomodulant activity.

Another assay deals with T lymphocites. Briefly: Comparison with Interferon gamma: proliferative response of T lymphocites after presentation of B lymphocites treated with PPD. It is filed as cell-based. Particulars: 1000 u/ml. An excerpt:
With the aim of more detailed study of the mechanism of action, the effect of the tripeptide PYR-LEU-TRP has been compared to that of Interferon gamma as regards the stimulation of the proliferative response of T lymphocites after presentation of the B lymphocites treated with PPD.

Turning to `CC(C)C[C@H](NP(=O)(O)O[C@@H]1O[C@@H](C)[C@H](O)[C@@H](O)[C@H]1O)C(=O)N[C@@H](Cc1c[nH]c2ccccc12)C(=O)O` [Phosphoramidon], in assay [1], the “Effect on cell proliferation, ACTIVATOR USED Interl. 2” value was “+++”. In addition, in assay [1] (PBMC activated with PPD, 6 days), the “Effect on cell proliferation, ACTIVATOR USED PPD” value is reported as “+++”.

Regarding Z--PRO--LEU--TRP, the “Effect on cell proliferation, ACTIVATOR USED Interl. 2” value in assay [1] was “+++”.

Consider “gamma Interferon: Interferon gamma, compared with the tripeptide at 1000 u/ml”, for which the “increase of the basal proliferative response” value in the assay on T lymphocites was “approximately two and a half times”.
